Test results: patent US20180280485A1, “THIORETINAMIDE COMPOSITIONS FOR THE APOPTOSIS OF MALIGNANT CELLS WHILE PREVENTING THE APOPTOSIS OF NORMAL CELLS AND RELATED METHODS” (priority 2017, published 2018)

Legend:
[1] = tested on: human adenocarcinoma cells; assay: Growth of cultured human adenocarcinoma cells (Example 7); assay type: cell-based; settings: for cell growth (10^5): cell number day 4, 10^5 cells passaged day 0, no addition 7.4 ± 2.7; for cell growth (10^5) / cell growth (% of control): TR2Co/TR 30 mg/dL, DATS/NBS 1.0 mg/dL; for cell growth (% of control): day 4; for inhibition of growth of cultured human adenocarcinoma cells: each compound alone, Table 2
Procedure: Human adenocarcinoma cells were cultured in RPMI medium with added fetal bovine serum and antibiotics, as reported by McCully K S et al in Research Communications in Chemical Pathology and Pharmacology, 1992; 77: 125-128 and reviewed by Ariga T et al in Biofactors 2006; 26: 93-103. Equal numbers (10^5) of adenocarcinoma cells were trypsinized and passaged on day 0, and the cells were refed with media containing test compounds on days 1 and 3. Cell numbers were determined by trypsinization on day 4. Thioretinaco (TR2Co) and thioretinamide (TR) were synthesized, as previously described (McCully U.S. Pat. No. 4,618,685; McCully U.S. Pat. No. 4,925,931) and dissolved in absolute ethanol. Authentic diallyl trisulfide ([…]) and napabucasin (NBS) were solubilized in propylene glycol. Propylene glycol (PG) was added to the ethanol solutions of the test compounds, the ethanol was evaporated under reduced pressure at 37° C., and the resulting solutions in propylene glycol were added to the culture media.

[2] = tested on: human colon carcinoma cells; settings: in vitro; read-out: inhibitory concentration (IC50) against proliferation; cited from earlier work
Caenorhabtidis elegans = settings: exposure to diallyl trisulfide; cited from earlier work
[3] = tested on: Normal control cell lines; settings: versus human leukemia and myeloma cell lines; cited from earlier work
normal fibroblasts = settings: in vitro; cited from earlier work
[4] = tested on: human pancreatic adenocarcinoma cells; settings: in vitro, cited from earlier work; for growth of cells: without cellular degeneration
[5] = Toxicity in animal tests or human trials; assay type: in vivo; settings: 7.5 mg/70 kg/day to 300 mg/70 kg/day

| Molecule | cell growth (10^5) [1] | cell growth (% of control) [1] | inhibition of growth of cultured human adenocarcinoma cells [1] | IC50 [2] [µM] | increase of lifespan (Caenorhabtidis elegans) | increase in concentration required to produce apoptosis and growth inhibition in normal control cell lines [3] [fold] | growth and lactate production (normal fibroblasts) | growth of cells [4] | lactate production [4] | toxicity (weight loss, nausea, impairment of liver function, headache, skin lesions) [5] |
| --- | --- | --- | --- | --- | --- | --- | --- | --- | --- | --- |
| C=CCSSSCC=C [DATS, diallyl trisulfide, reference compound] | 2.7 ± 0.57 10^5 | 36 % of control | significantly inhibit growth | 5 | approximately 12% |  |  |  |  |  |
| Cc1cc2c(o1)C(=O)c1ccccc1C2=O [FHQ3, 2-methyl-naphtho[2,3-b]furan-4,9 dione] |  |  |  |  |  | 10 |  |  |  |  |
| O=C(O)Cc1cc2c(o1)C(=O)c1ccccc1C2=O [NBS, 2-carboxymethyl-naphtho[2,3-b]furan-4,9-dione, reference compound] | 2.3 ± 0.52 10^5 | 28 % of control | significantly inhibit growth |  |  |  |  |  |  |  |
| CC1=C(/C=C/C(C)=C/C=C/C(C)=C/C(=O)NC2CCSC2=O)C(C)(C)CCC1 (centres unmarked) [TR, N-homocysteine thiolactonyl retinamide] | 1.4 ± 0.50 10^5 | 19 % of control | significantly inhibit growth |  |  |  | unaffected | inhibited | increased | no evidence of toxicity |
| CC1=C(/C=C/C(C)=C/C=C/C(C)=C/CO)C(C)(C)CCC1 [retinol, reference compound] |  |  |  |  |  |  |  |  |  | no evidence of toxicity |
| N-homocysteine thiolactonyl retinamido cobalamin [TR2Co] | 2.5 ± 0.82 10^5 | 33 % of control | significantly inhibit growth |  |  |  | unaffected | inhibited | increased |  |
